Converted amounts (≈) assume the structure as drawn. Where two headings read alike, the source gives them in different places.
Legend:
Format in all cases: cell-based
Saccharomyces cerevisiae = assay: Antifungal activity, microtiter broth dilution MIC; conditions: Saccharomyces cerevisiae ID ATCC 2601, 35 °C, 24-48 hours
Protocol: (§1) Antifungal activity for the compounds of this invention was established by evaluating a representative compound of this invention (Compound I) against several strains of fungi. Briefly the following procedure was used to evaluate such activity. A 96 U-bottom microtiter plate was filled (50 µl/well) with RPMI 1640. The compounds to be evaluated were placed in appropriate wells, and serial diluted in successive wells to provide 11 dilutions. The concentrations ranged from 64 through 0.06 µg/ml. An adjusted inoculum of fungi (50 µl) was added to each well and the plates were incubated at 35 °C for 24-48 hours. […]

Candida pseudotropicalis = assay: Antifungal activity, microtiter broth dilution MIC; conditions: Candida pseudotropicalis ID ATCC 28838, 35 °C, 24-48 hours
Protocol: as §1

Candida tropicalis = assay: Antifungal activity, microtiter broth dilution MIC; conditions: 35 °C, 24-48 hours
Protocol: as §1

Candida lusitaniae = assay: Antifungal activity, microtiter broth dilution MIC; conditions: Candida lusitaniae ID 94-3, 35 °C, 24-48 hours
Protocol: as §1

Aspergillus niger = assay: Antifungal activity, microtiter broth dilution MIC; conditions: Aspergillus niger ID S-430, 35 °C, 24-48 hours
Protocol: as §1

Candida albicans = assay: Antifungal activity, microtiter broth dilution MIC; conditions: 35 °C, 24-48 hours
Protocol: as §1

Candida parapsilosis = assay: Antifungal activity, microtiter broth dilution MIC; conditions: 35 °C, 24-48 hours
Protocol: as §1

Candida rugosa = assay: Antifungal activity, microtiter broth dilution MIC; conditions: Candida rugosa ID 94-10, 35 °C, 24-48 hours
Protocol: as §1

Cryptococcus neoformans = assay: Antifungal activity, microtiter broth dilution MIC; conditions: Cryptococcus neoformans ID ATCC 90112, 35 °C, 24-48 hours
Protocol: as §1

Candida zeylanoided = assay: Antifungal activity, microtiter broth dilution MIC; conditions: Candida zeylanoided ID 94-15, 35 °C, 24-48 hours
Protocol: as §1

[1] = tested on: Filobasidiella neoformans; assay: Antifungal activity, microtiter broth dilution MIC; conditions: Filobasidiella neoformans ID ATCC 7472, 35 °C, 24-48 hours
Protocol: as §1

Aspergillus fumigatus = assay: Antifungal activity, microtiter broth dilution MIC; conditions: Aspergillus fumigatus ID ATCC 26933, 35 °C, 24-48 hours
Protocol: as §1

Candida glabrata = assay: Antifungal activity, microtiter broth dilution MIC; conditions: Candida glabrata ID ATCC 90030, 35 °C, 24-48 hours
Protocol: as §1

Candida krussii = assay: Antifungal activity, microtiter broth dilution MIC; conditions: Candida krussii ID 94-2, 35 °C, 24-48 hours
Protocol: as §1

Aspergillus flavus = assay: Antifungal activity, microtiter broth dilution MIC; conditions: Aspergillus flavus ID ATCC 12963, 35 °C, 24-48 hours
Protocol: as §1

[2] = tested on: A2780DDP (ovarian - resistant to cis-platin); assay: Antineoplastic activity, tumor cell growth inhibition (sulforhodamine B); conditions: A2780DDP cells, 48 hours, inhibition of growth
Source text: (§2) Antineoplastic activity for the compounds of this invention was established by evaluating the antineoplastic activity of a representative compound of this invention (Compound I) against six tumor cell lines in vitro. Briefly, tumor cells from six cell lines were placed in wells of a 96 well microtiter plate. The following tumor cell lines were used: A2780S (ovarian), A2780DDP (ovarian - resistant to cis-platin), A431 (vulva epidermoid origin), SW620 (colon), SKBR3 (breast), and MDA-MB-435 (breast). The tumors cells were grown in the presence of serial dilutions of the compound to be evaluated for 48 hours, and cell growth determined using a colorimetric procedure (sulforhrodamine B). The inhibition of growth was calculated compared to the number of cells at the time of test compound addition. Results are expressed as an IC50 (µg/ml). […] In particular, the compounds of this invention are useful against solid tumors, including sarcomas and carcinomas; and more particularly against astrocytomas, prostate cancer, breast cancer, colon cancer, small cell lung cancer, and ovarian cancer; and adult T-cell leukemia/lymphoma.

SKBR3 (breast) = assay: as above; conditions: SKBR3 cells, 48 hours, inhibition of growth
Source text: as §2

[3] = tested on: A431 (vulva epidermoid origin); assay: as above; conditions: A431 cells, 48 hours, inhibition of growth
Source text: as §2

SW620 (colon) = assay: as above; conditions: SW620 cells, 48 hours, inhibition of growth
Source text: as §2

MDA-MB-435 (breast) = assay: as above; conditions: MDA-MB-435 cells, 48 hours, inhibition of growth
Source text: as §2

A2780S (ovarian) = assay: as above; conditions: A2780S cells, 48 hours, inhibition of growth
Source text: as §2

[4] = Candida parapsilosis ID ATCC 90018

## C[C@@H]1[C@H](O)[C@@H](C)/C=C/C=C/C=C/C=C/C=C/C=C/C=C/[C@H](O[C@@H]2O[C@H](C)[C@@H](O)[C@H](N)[C@@H]2O)C[C@@H]2O[C@](O)(C[C@@H](O)C[C@@H](O)[C@H](O)CC[C@@H](O)C[C@@H](O)CC(=O)O[C@H]1C)C[C@H](O)[C@H]2C(=O)O [Amphtericin B]
Saccharomyces cerevisiae
  MIC: ≤0.12 µg/mL
Candida pseudotropicalis
  MIC: 0.25 µg/mL (≈ 0.271 µM)
Candida tropicalis; Candida tropicalis ID 94-13
  MIC: 0.25 µg/mL (≈ 0.271 µM)
Candida tropicalis; Candida tropicalis ID 94-14
  MIC: 0.25 µg/mL (≈ 0.271 µM)
Candida lusitaniae
  MIC: ≤0.12 µg/mL
Aspergillus niger
  MIC: 0.25 µg/mL (≈ 0.271 µM)
Candida albicans; Candida albicans ID 94-1
  MIC: ≤0.12 µg/mL
Candida albicans; Candida albicans ID 1063
  MIC: 0.25 µg/mL (≈ 0.271 µM)
Candida albicans; Candida albicans ID 1117
  MIC: 0.25 µg/mL (≈ 0.271 µM)
Candida albicans; Candida albicans ID ATCC 90028
  MIC: 0.25 µg/mL (≈ 0.271 µM)
Candida albicans; Candida albicans ID C-83
  MIC: 0.25 µg/mL (≈ 0.271 µM)
Candida parapsilosis; Candida parapsilosis ID 94-8
  MIC: 0.25 µg/mL (≈ 0.271 µM)
Candida parapsilosis; Candida parapsilosis ID 94-9
  MIC: 0.5 µg/mL (≈ 0.541 µM)
Candida parapsilosis; [4]
  MIC: ≤0.12 µg/mL
Candida rugosa
  MIC: 0.25 µg/mL (≈ 0.271 µM)
Cryptococcus neoformans
  MIC: ≤0.12 µg/mL
Candida zeylanoided
  MIC: 0.25 µg/mL (≈ 0.271 µM)
[1]
  MIC: 0.12 µg/mL (≈ 0.13 µM)
Aspergillus fumigatus
  MIC: 0.25 µg/mL (≈ 0.271 µM)
Candida glabrata
  MIC: 0.25 µg/mL (≈ 0.271 µM)
Candida krussii
  MIC: 0.5 µg/mL (≈ 0.541 µM)
Aspergillus flavus
  MIC: 2 µg/mL (≈ 2.16 µM)

## CO[C@H]1C[C@@H]2CC[C@@H](C)[C@@](O)(O2)[C@]2(O)C(=O)N3[C@@H](CCC[C@@H]32)C(=O)O[C@H]([C@H](C)C[C@@H]2CC[C@@H](O)[C@H](OC)C2)CC(=O)[C@H](C)/C=C(\C)[C@@H](O)[C@@H](OC)C(=O)[C@H](C)C[C@H](C)/C=C/C=C/C=C/1C [Compound I, (1S, 2R, 3R, 6S, 8S, 9E, 11E, 13E, 15S, 17R, 19R, 20R, 21E, 23R, 26S, 29S, 33R)-1,2, 30-Trihydroxy-26-[(1R)-2-[(1S, 3R, 4R)-4-hydroxy-3-methoxycyclohexyl]-1-methylethyl]-8, 19-dimethoxy-3,9,15, 17, 21, 23-hexamethyl-27, 36-dioxa-35-azatetracyclo[27.4.2.1.[2, 6].0 [33, 35]] hexatriaconta-9, 11, 13, 21-tetraene-18, 24, 28, 34-tetrone]
Saccharomyces cerevisiae
  MIC: 8 µg/mL (≈ 8.75 µM)
Candida pseudotropicalis
  MIC: 4 µg/mL (≈ 4.38 µM)
Candida tropicalis; Candida tropicalis ID 94-13
  MIC: 16 µg/mL (≈ 17.5 µM)
Candida tropicalis; Candida tropicalis ID 94-14
  MIC: 8 µg/mL (≈ 8.75 µM)
Candida lusitaniae
  MIC: 4 µg/mL (≈ 4.38 µM)
Aspergillus niger
  MIC: ≥64 µg/mL
Candida albicans; Candida albicans ID 94-1
  MIC: 16 µg/mL (≈ 17.5 µM)
Candida albicans; Candida albicans ID 1063
  MIC: 16 µg/mL (≈ 17.5 µM)
Candida albicans; Candida albicans ID 1117
  MIC: 32 µg/mL (≈ 35 µM)
Candida albicans; Candida albicans ID ATCC 90028
  MIC: 16 µg/mL (≈ 17.5 µM)
Candida albicans; Candida albicans ID C-83
  MIC: ≥64 µg/mL
Candida parapsilosis; Candida parapsilosis ID 94-8
  MIC: 8 µg/mL (≈ 8.75 µM)
Candida parapsilosis; Candida parapsilosis ID 94-9
  MIC: 8 µg/mL (≈ 8.75 µM)
Candida parapsilosis; [4]
  MIC: 8 µg/mL (≈ 8.75 µM)
Candida rugosa
  MIC: 16 µg/mL (≈ 17.5 µM)
Cryptococcus neoformans
  MIC: 8 µg/mL (≈ 8.75 µM)
Candida zeylanoided
  MIC: 8 µg/mL (≈ 8.75 µM)
[1]
  MIC: ≥64 µg/mL
Aspergillus fumigatus
  MIC: ≥64 µg/mL
Candida glabrata
  MIC: 8 µg/mL (≈ 8.75 µM)
Aspergillus flavus
  MIC: ≥64 µg/mL
[2]
  IC50: 6.51 µg/mL (≈ 7.12 µM)
SKBR3 (breast)
  IC50: 7.029 µg/mL (≈ 7.69 µM)
[3]
  IC50: 20.46 µg/mL (≈ 22.4 µM)
SW620 (colon)
  IC50: 24.84 µg/mL (≈ 27.2 µM)
MDA-MB-435 (breast)
  IC50: 27.28 µg/mL (≈ 29.8 µM)
A2780S (ovarian)
  IC50: 8.756 µg/mL (≈ 9.58 µM)

## OC(Cn1cncn1)(Cn1cncn1)c1ccc(F)cc1F [Fluconazole]
Saccharomyces cerevisiae; ATCC2601, read-out: MIC
  MIC: 8 µg/mL (≈ 26.1 µM)
Candida pseudotropicalis; Kluyveromyces marxianus, ATCC28838, read-out: MIC
  MIC: ≤ 0.12 µg/mL
Candida tropicalis; Candida tropicalis ID 94-13
  MIC: ≥16 µg/mL
Candida tropicalis; Candida tropicalis ID 94-14, read-out: MIC
  MIC: ≥ 16 µg/mL
Candida lusitaniae; Clavispora lusitaniae, read-out: MIC
  MIC: 1 µg/mL (≈ 3.27 µM)
Aspergillus niger; read-out: MIC
  MIC: > 16 µg/mL
Candida albicans; Candida albicans, ATCC90028, Candida albicans ID ATCC 90028, read-out: MIC
  MIC: ≥ 16 µg/mL
Candida albicans; Candida albicans, Candida albicans ID 94-1, read-out: MIC
  MIC: ≥ 16 µg/mL
Candida albicans; Candida albicans, Candida albicans ID 1063, read-out: MIC
  MIC: 4 µg/mL (≈ 13.1 µM)
Candida albicans; Candida albicans, Candida albicans ID 1117, read-out: MIC
  MIC: 8 µg/mL (≈ 26.1 µM)
Candida albicans; Candida albicans, Candida albicans ID C-83, read-out: MIC
  MIC: ≥ 16 µg/mL
Candida parapsilosis; Lodderomyces parapsilosis, ATCC90018, Candida parapsilosis ID ATCC 90018, read-out: MIC
  MIC: 0.5 µg/mL (≈ 1.63 µM)
Candida parapsilosis; Lodderomyces parapsilosis, Candida parapsilosis ID 94-8, read-out: MIC
  MIC: 0.5 µg/mL (≈ 1.63 µM)
Candida parapsilosis; Lodderomyces parapsilosis, Candida parapsilosis ID 94-9, read-out: MIC
  MIC: 0.5 µg/mL (≈ 1.63 µM)
Candida rugosa; Diutina rugosa, read-out: MIC
  MIC: 2 µg/mL (≈ 6.53 µM)
Cryptococcus neoformans; ATCC90112, read-out: MIC
  MIC: 8 µg/mL (≈ 26.1 µM)
Candida zeylanoided; read-out: MIC
  MIC: ≥ 16 µg/mL
[1]; Cryptococcus neoformans, ATCC7472, read-out: MIC
  MIC: 16 µg/mL (≈ 52.2 µM)
Aspergillus fumigatus; ATCC26933, read-out: MIC
  MIC: > 16 µg/mL
Candida glabrata; Nakaseomyces glabratus, ATCC90030, read-out: MIC
  MIC: 4 µg/mL (≈ 13.1 µM)
Candida krussii; read-out: MIC
  MIC: ≥ 16 µg/mL
Aspergillus flavus; ATCC12963, read-out: MIC
  MIC: > 16 µg/mL

Reference: patent EP1105395B1, “PHOTOCYCLIZED RAPAMYCINS” (priority 1998, dated 2000)
